Each block holds one compound with its values, some of them ahead of it. Activity calls are given as the source filed them.
Assays:
Leucine aminopeptidase = biological target: T1, Leucine aminopeptidase (Plasmodium falciparum 3D7, UniProt Q8IL11); assay: P. falciparum M17LAP inhibitors, primary screen, biochemical, fluorogenic H-Leu-NHMec substrate, 1536-well (AID 1619); format: functional
T1 sequence (Q8IL11 whole entry): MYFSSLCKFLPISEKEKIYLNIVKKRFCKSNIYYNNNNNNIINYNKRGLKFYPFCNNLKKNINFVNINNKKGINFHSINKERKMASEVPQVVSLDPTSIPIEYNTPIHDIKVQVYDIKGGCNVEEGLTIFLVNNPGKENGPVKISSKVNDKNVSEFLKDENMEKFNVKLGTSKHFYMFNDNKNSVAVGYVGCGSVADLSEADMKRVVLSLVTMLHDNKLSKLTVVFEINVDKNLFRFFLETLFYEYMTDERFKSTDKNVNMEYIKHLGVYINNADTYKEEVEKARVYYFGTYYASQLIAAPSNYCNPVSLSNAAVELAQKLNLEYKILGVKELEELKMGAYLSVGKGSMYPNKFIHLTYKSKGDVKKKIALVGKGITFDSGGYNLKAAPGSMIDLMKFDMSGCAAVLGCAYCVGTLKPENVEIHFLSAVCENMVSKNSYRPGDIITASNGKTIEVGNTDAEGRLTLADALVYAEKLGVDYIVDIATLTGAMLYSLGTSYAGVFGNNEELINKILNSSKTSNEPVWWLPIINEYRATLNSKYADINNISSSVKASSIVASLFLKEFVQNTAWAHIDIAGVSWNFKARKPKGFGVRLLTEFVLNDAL

Aspartyl aminopeptidase = biological target: T2, Aspartyl aminopeptidase (Plasmodium falciparum 3D7, UniProt Q8I2J3); assay: Counterscreen for inhibitors of M1 and M17 aminopeptidases: QFRET-based biochemical high throughput dose response assay for inhibitors of the Plasmodium falciparum M18 Aspartyl Aminopeptidase (PFM18AAP). [Related PubChem assays: 1619 (Screening assay (M17LAP inhibitors).), 1445 (Screening assay (M1AAP inhibitors).)]
T2 sequence (Q8I2J3 whole entry): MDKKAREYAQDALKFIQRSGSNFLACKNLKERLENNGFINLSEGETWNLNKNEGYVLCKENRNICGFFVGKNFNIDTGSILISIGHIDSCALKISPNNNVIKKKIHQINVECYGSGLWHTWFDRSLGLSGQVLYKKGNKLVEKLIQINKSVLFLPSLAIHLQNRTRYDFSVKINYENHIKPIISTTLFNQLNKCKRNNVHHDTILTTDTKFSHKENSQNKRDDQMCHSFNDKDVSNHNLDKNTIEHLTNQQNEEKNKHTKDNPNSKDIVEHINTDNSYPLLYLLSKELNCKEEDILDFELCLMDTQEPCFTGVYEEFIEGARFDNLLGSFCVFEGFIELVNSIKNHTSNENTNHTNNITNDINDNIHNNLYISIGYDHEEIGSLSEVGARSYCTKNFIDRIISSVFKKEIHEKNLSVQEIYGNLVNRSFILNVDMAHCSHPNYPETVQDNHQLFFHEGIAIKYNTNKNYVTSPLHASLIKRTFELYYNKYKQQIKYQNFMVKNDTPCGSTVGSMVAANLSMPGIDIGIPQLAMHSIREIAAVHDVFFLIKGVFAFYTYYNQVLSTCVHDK

Procathepsin L = Procathepsin L (Homo sapiens, UniProt P07711); assay: CTSL1 protease inhibition – biochemical, QFRET, 1536-well, counter-screen for M1/M17 aminopeptidase inhibitor project, dose response (AID 2214)
Protein skinhead-1 = biological target: T3, Protein skinhead-1 (Caenorhabditis elegans, UniProt P34707); format: functional
T3 sequence (P34707 whole entry): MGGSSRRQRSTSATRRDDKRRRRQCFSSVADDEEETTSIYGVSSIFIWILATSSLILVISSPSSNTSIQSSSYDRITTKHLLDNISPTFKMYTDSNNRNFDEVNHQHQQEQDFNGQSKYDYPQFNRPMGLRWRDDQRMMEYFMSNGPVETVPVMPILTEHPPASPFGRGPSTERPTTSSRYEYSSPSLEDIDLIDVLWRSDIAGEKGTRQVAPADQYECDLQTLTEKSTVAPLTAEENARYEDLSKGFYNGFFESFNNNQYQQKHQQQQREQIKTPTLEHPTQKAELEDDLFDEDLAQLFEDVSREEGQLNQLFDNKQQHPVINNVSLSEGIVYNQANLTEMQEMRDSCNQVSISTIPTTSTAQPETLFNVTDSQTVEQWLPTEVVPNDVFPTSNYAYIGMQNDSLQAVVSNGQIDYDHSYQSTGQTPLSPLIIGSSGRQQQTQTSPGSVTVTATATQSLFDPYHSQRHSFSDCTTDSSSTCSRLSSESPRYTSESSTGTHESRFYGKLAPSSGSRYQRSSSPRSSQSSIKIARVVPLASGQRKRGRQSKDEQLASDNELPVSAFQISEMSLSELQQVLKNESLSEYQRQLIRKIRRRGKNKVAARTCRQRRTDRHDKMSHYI

[1] = biological target: Dual specificity protein phosphatase 6 (Rattus norvegicus, UniProt Q64346); assay: inhibition of rat DUSP6 enzyme activity – biochemical, in vitro, primary screen (AID 425)
Prothrombin = Prothrombin (Homo sapiens, UniProt P00734); assay: Thrombin 1536 HTS Dose Response Confirmation. [Related pubchem assays: 1046 (Thrombin 1536 HTS; hits were confirmed in this assay)]; format: functional
Bcl-2-related protein A1 [2] = biological target: T4, Bcl-2-related protein A1 (Mus musculus, UniProt Q07440); assay: small-molecule antagonists of Bfl-1/BH3 interaction – biochemical, TR-FRET, mouse Bfl-1, confirmation (AID 621);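 note: TR-FRET binding of GST-Bfl-1 to FITC-labelled Bid peptide via terbium antibody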
T4 sequence (Q07440 whole entry): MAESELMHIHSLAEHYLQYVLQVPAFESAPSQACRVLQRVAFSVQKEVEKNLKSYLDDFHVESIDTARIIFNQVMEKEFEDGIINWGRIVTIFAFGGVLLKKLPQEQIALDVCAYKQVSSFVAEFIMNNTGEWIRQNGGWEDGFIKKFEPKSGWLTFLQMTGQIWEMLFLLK

Bcl-2-related protein A1 [3] = biological target: T4, Bcl-2-related protein A1; assay: Bfl-1 binding inhibitors, SAR follow-up, biochemical, fluorescence polarization (AID 1070)
Cytochrome P450 2C19 = Cytochrome P450 2C19 (Homo sapiens, UniProt P33261); assay: qHTS Assay for Inhibitors and Substrates of Cytochrome P450 2C19. [Related pubchem assays: 410 ]; format: ADME; conditions: read-out: Potency
[4] = biological target: T5, RNA-binding protein pos-1 (Caenorhabditis elegans, UniProt G5EF15); assay: disruptors of C. elegans POS-1 RNA interaction – biochemical, fluorescence polarization, dose response (AID 1964);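 note: purified POS-1 fused to maltose binding protein made in E. coli; potency of compounds blocking POS-1 binding to fluorescent RNA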
T5 sequence (G5EF15 whole entry): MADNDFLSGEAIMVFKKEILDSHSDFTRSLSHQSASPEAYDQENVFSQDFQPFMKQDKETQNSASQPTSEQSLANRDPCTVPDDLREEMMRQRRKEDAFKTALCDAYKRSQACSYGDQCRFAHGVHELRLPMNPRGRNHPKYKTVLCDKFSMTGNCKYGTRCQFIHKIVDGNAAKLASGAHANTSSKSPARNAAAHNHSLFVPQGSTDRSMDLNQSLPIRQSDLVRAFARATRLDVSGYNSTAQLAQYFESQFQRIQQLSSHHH

[5] = biological target: T6, Zinc finger protein mex-5 (Caenorhabditis elegans, UniProt Q9XUB2); assay: potency of MEX-5 RNA-binding blockers – biochemical, C. elegans, fluorescence polarization, dose response (AID 1960)
T6 sequence (Q9XUB2 whole entry): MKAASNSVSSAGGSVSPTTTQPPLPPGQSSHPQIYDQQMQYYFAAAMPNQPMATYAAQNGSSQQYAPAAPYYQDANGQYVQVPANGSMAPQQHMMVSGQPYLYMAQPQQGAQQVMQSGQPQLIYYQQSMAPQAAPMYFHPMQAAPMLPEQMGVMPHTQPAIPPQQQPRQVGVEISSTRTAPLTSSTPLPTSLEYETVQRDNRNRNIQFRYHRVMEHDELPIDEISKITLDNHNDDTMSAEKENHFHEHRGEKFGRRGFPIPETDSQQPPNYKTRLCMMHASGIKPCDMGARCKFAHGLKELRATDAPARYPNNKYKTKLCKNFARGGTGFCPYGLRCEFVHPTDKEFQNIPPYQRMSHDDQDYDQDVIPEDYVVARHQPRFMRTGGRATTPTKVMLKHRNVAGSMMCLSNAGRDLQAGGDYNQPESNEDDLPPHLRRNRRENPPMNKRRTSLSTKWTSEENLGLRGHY

[6] = antibacterial activity against E. coli NEB5alpha – luminescence, counter-screen for MEX-5/POS-1 RNA-binding inhibitor project, dose response (AID 1959); format: functional

Chain of Dual specificity protein phosphatase 6 (Q64346 whole entry): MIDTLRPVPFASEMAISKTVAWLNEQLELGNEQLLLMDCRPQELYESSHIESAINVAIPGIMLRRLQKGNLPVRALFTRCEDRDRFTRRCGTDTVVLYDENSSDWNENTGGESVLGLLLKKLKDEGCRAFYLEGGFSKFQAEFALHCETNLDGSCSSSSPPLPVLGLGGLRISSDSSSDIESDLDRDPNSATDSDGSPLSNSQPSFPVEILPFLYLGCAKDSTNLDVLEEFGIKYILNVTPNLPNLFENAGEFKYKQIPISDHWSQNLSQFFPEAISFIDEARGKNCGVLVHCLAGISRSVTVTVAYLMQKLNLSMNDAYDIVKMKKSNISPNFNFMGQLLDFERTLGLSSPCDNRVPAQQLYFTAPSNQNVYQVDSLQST
Chain of Cytochrome P450 2C19 (P33261 whole entry, the tested form may be a part): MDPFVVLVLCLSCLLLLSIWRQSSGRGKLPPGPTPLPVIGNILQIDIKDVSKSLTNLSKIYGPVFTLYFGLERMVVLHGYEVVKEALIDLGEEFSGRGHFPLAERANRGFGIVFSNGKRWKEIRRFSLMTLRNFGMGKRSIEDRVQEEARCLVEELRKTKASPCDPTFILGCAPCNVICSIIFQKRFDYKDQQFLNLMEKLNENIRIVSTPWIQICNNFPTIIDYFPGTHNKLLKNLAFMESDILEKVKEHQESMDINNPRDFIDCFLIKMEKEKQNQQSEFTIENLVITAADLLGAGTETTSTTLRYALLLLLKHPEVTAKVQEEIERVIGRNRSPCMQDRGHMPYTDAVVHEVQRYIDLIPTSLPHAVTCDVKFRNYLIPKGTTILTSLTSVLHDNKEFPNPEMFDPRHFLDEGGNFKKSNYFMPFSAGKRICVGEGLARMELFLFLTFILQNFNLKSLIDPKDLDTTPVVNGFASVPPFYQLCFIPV
Chain of Procathepsin L (P07711 whole entry): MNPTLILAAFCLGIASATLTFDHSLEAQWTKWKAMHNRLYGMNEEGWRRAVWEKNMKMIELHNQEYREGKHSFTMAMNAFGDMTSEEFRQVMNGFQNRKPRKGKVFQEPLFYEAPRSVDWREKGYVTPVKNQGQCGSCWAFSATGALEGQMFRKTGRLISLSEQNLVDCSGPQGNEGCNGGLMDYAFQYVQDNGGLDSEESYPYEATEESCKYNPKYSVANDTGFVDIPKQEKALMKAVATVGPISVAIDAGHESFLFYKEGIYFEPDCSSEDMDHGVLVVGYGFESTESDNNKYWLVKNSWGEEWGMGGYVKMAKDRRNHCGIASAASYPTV

Structure (SMILES): O=C(CSc1nc(O)cc(O)n1)Nc1ccc2c(c1)CCC2
IC50 (Leucine aminopeptidase): 2.01 µM (active) | IC50 (Aspartyl aminopeptidase): > 73.5 µM (not active) | IC50 (Procathepsin L): > 59.6 µM (not active) | IC50 (Protein skinhead-1): > 100 µM (inactive)

Structure (SMILES): COc1ncccc1-c1nnn(-c2ccc(Cl)nc2)n1
IC50 (Bcl-2-related protein A1 [2]): > 100 µM (not active) | IC50 (Bcl-2-related protein A1 [3]): > 100 µM (not active)

Structure (SMILES): C[C@@]12CCC(=O)C=C1CC[C@H]1[C@H]3CC[C@](O)(C(=O)CO)[C@]3(C)CC[C@@H]12
AC50 (Cytochrome P450 2C19): 10 µM (inconclusive)

Continued, in another order:

IC50 [1]: > 100 µM (not active)
Structure (SMILES): CCCCOc1ccccc1P(=O)(O)CP(=O)(c1ccccc1)c1ccccc1

IC50 (Prothrombin): > 50 µM (not active)
Structure (SMILES): COc1ccc(NC(=O)Cc2ccccc2F)cn1

EC50 [4]: > 300 µM (not active) | EC50 [5]: > 300 µM (not active)
Structure (SMILES): NC(=O)c1ccccc1N/C=C/C(=O)c1ccc(F)cc1
EC50 [6]: 23 µM (active)

From ChEMBL document CHEMBL1201862, “PubChem BioAssay data set” (2004)
